Assay results: PubChem BioAssay AID743485 (Broad Institute, 2014)

System: Mycobacterium tuberculosis replicating, CFU count, imaging
Assay: M. tuberculosis CFU reduction, CFU imaging, dry powder, dose response (AID 743485)

| Compound | AC90 [µM] |
| --- | --- |
| Cn1c(NC(=O)c2ccccc2)nc2c3cnccc3ccc21 | < 8 |
| Cn1c(NC(=O)c2ccccc2)nc2c3ccncc3ccc21 | < 8 |
| Cn1c(NC(=O)c2ccccc2)nc2c3nccnc3ccc21 | < 16 |
| Cn1c(NC(=O)c2ccccc2)nc2c3ncccc3ccc21 | < 8 |
